The numbers were not newly measured in patent publication US7723528B2, “Sulfur transfer reagents for oligonucleotide synthesis” (AM Chemicals LLC, priority 2008, dated 2010), which cites them from elsewhere.

For the data set the following is noted: background statement.

Regarding `O=C1SS(=O)(=O)c2ccccc21` [Beaucage reagent, 3H-1,2-benzodithiol-3-one-1,1-dioxide], the Hydrolytic stability entry is reported as “rather low”.
As to `CCOc1nc(=O)ss1` [EDITH, 3-ethoxy-1,2,4-dithiazoline-5-one], the Hydrolytic stability entry is recorded as “rather low”.
